The experiment has as its target Leucine-rich repeat serine/threonine-protein kinase 2 (Homo sapiens, UniProt Q5S007, G2019S). Briefly: Inhibition of GST-tagged truncated human LRRK2 G2019S mutant using fluorescein labeled LRRKtide peptide as substrate preincubated for 15 mins followed by substrate addition measured after 90 mins in presence of ATP at Km concentration by TR-FRET Lanthascreen assay. For orientation: In TR-FRET formats the signal depends on donor and acceptor labels being close together.

Sequence of Leucine-rich repeat serine/threonine-protein kinase 2 (Q5S007 whole entry G2019S, the tested form may be a part): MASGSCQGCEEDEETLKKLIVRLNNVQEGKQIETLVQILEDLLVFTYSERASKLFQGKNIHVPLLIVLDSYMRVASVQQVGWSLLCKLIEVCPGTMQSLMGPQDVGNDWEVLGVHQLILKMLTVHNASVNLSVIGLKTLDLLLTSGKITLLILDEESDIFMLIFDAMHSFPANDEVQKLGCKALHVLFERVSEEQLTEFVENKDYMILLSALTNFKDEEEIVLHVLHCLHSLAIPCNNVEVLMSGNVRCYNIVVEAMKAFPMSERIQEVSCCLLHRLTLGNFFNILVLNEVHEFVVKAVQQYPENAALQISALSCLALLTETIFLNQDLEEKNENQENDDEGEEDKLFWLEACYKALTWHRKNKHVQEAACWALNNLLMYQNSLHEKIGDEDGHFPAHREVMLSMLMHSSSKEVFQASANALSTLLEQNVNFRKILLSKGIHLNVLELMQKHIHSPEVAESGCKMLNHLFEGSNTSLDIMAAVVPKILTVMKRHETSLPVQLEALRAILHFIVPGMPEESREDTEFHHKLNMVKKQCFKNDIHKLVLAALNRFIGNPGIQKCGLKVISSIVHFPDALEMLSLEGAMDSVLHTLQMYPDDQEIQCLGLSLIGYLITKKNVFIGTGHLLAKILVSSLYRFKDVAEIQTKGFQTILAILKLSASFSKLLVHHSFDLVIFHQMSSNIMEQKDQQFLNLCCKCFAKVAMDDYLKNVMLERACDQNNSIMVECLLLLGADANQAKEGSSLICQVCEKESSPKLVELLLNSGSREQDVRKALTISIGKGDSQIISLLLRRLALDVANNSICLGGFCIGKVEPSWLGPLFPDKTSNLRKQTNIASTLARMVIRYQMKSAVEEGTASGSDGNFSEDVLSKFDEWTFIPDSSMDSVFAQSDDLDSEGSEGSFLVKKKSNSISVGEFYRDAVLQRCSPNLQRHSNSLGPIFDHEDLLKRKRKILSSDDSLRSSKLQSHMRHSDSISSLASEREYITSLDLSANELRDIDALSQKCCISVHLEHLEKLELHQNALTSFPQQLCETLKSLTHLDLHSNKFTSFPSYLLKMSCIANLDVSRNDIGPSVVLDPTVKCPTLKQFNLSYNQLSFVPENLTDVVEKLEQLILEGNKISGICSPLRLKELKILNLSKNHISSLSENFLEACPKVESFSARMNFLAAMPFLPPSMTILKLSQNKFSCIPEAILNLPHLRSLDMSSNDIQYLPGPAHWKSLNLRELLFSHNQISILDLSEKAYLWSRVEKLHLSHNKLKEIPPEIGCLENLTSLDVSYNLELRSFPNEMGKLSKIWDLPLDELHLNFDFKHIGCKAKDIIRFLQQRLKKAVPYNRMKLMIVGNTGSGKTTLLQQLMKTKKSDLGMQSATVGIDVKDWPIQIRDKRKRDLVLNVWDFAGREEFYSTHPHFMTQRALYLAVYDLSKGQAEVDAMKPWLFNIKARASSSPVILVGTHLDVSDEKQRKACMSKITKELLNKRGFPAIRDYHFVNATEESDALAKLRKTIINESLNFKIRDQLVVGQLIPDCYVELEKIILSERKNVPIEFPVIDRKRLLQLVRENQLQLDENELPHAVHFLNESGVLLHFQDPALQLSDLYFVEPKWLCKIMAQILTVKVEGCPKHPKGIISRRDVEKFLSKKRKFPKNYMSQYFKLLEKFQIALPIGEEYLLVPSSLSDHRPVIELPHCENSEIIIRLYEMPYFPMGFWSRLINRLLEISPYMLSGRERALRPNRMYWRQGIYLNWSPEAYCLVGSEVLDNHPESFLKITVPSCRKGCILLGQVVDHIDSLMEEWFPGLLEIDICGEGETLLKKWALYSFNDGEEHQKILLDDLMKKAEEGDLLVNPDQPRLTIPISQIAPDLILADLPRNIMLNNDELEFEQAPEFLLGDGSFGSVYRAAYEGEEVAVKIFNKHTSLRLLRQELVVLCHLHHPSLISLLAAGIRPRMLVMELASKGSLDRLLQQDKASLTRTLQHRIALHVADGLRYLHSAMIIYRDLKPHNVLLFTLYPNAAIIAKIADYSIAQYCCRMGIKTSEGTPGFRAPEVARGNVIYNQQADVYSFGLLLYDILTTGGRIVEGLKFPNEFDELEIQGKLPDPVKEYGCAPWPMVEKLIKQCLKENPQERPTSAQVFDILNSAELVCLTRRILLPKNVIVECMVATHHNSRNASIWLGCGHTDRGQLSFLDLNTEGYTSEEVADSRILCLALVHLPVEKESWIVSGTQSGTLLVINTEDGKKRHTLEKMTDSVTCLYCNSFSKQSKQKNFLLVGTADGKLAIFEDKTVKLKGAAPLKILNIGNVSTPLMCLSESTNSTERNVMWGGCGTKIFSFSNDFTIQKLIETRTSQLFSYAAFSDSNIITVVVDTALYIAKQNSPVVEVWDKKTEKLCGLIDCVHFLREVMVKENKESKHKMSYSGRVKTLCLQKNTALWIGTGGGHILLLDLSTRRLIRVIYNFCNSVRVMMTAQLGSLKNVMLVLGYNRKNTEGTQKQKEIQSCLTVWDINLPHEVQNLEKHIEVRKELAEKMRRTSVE

`OC1(c2cncs2)CCN(c2cc3c(cnn3-c3cnn(C4CC4)c3)cc2Cl)CC1`: the IC50 came out at 97.5 nM. Regarding `[2H]C([2H])([2H])OCC12CC(n3cc(-n4ncc5cc(Cl)c(N6CCN([C@]7(C)COC[C@@H]7O)CC6)cc54)cn3)(C1)C2`, the IC50 came to 157 nM. As for `CO[C@H]1COC[C@H]1N1CCN(c2cc3c(cnn3-c3cnn(C45CC(C4)C5)c3)cc2Cl)CC1`, the IC50 was 104 nM. In the case of `COCC12CC(n3cc(-n4ncc5cc(Cl)c(N6CCN([C@]7(C)COC[C@@H]7O)CC6)cc54)cn3)(C1)C2`, the IC50 is under 80.4 nM. Then `C[C@@]1(N2CCN(c3cc4c(cnn4-c4cnn(C56CC(C5)C6)c4)cc3Cl)CC2)CC[C@H]1O`, with 154 nM; and `Cc1cc2cnn(-c3cnn(C45CC(C4)C5)c3)c2cc1N1CCN([C@@H]2COC[C@@H]2O)CC1`, with 259 nM.

In general, IC50 refers to the concentration needed to halve the response being measured.

The values above are taken from ChEMBL document CHEMBL4680359, “1-Pyrazolyl-5,6-Disubstituted Indazole Derivatives as LRRK2 Inhibitors for Treating Parkinson's Disease” (ACS Med Chem Lett, 2021).
